The source of these data is US11497788B2, “Supramolecular glycosaminoglycans” (Northwestern University, priority 2015, dated 2022).

The target of data set [1] is T1, BMP-2 (Homo sapiens, UniProt P12643).
T1 construct: purchased Medtronic Sofamor Danek (Minneapolis, Minn.)
T1 sequence (P12643 283-396): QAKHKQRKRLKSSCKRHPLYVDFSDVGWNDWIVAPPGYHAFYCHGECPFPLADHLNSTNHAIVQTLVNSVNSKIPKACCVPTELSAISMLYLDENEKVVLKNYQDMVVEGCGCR
The data set is described as follows: SPR binding to BMP-2. The following applies: azide-derivative, not assembled. Here is the method:
(§1) Surface Plasmon Resonance: The binding interactions between PAs (analytes) and growth factors (ligands) were analyzed via surface plasmon resonance (SPR) using a ProteON XPR36 system (Bio-Rad Laboratories). PA samples were thermally annealed as described for Cryo-TEM. PA solutions were spun down, pipetted for homogeneous mixing, and sequentially diluted to appropriate concentrations using Tween buffer (Milli-Q water, 0.05% Tween-20). Lyophilized powders of GFs were reconstituted to 5 μM without any carrier proteins according to the manufacturer's instructions. BMP-2, BMP-4, Shh, VEGF, and FGF-2 were further diluted to 200 nM in ProteOn Acetate Buffer pH 5.5, while FGF-1 was diluted to 200 nM in ProteOn Acetate Buffer pH 4.5. Noggin was diluted to 300 nM in ProteOn Acetate Buffer pH 5.5.
(§2) GFs were immobilized on a ProteOn GLC-Chip via amino coupling as described previously, with slight modifications (37). First, the alginate surface was activated with a freshly prepared mixture of 20 mM 1-Ethyl-3-[3-dimethylaminopropyl]carbodiimide hydrochloride (EDC) and 5 mM N-hydroxysulfosuccinimide (Sulfo-NHS) in Milli-Q water (vertical flow cells, 30 μL/min, 3 min). […] Interaction data were evaluated using the BIAEvaluation 4.1 software. […]
(In general: SPR reads the build-up and loss of mass on a sensor chip optically.)

For data set [2], the system named is BMP-2 signaling in C2C12 cells. The data set is described as follows: C2C12 osteoblast differentiation with BMP-2, alkaline phosphatase (ALP) activity. It counts as cell-based, mouse. The following applies: for effect on BMP-2 activity / osteoblast differentiation (in words) / level of ALP expression relative to BMP-2 alone (factor): C2C12, BMP-2 75 ng/mL. Here is the method: (§3) C2C12 Cell Culture: C2C12 mouse myoblasts (ATCC) were maintained in Dulbecco's Modified Eagle's Medium with high glucose and L-glutamine (DMEM, ATCC), supplemented with 100 U/mL of penicillin and 100 μg/mL streptomycin (P/S, Life Technologies) and 10% heat inactivated FBS (Life Technologies), and passaged at 80-90% confluence. Media was changed every 2 days. Passages 3 to 8 were used for experiments. Cells were grown at 37° C., 5% CO2 in a humidified atmosphere. Cells were detached following a 3 minute incubation at 37° C. with 0.05% Trypsin-EDTA (Life Technologies), then resuspended in DMEM (10% FBS). Unless stated otherwise, cells were seeded at 75,000 cells/mL (400 μL/well in a 48-well plate), and allowed to attach for a minimum of 3 hours prior to experiments.
C2C12 Osteoblast Differentiation: PA samples were thermally annealed as described for Cryo-TEM. PA solutions were spun down, pipetted for homogeneous mixing, then diluted to 1 mM with DMEM (no FBS). In a 1.5 mL microcentrifuge tube, PA solutions were further diluted with DMEM (5% FBS), gently vortexed, and appropriate amounts of GFs (20 μg/mL) were added to yield [PA]=125 μM and [GF]=375 ng/mL. For mixing, the microcentrifuge tube was gently inverted several times by hand. Following, cells were treated by adding a 100 μl, of the PA/GF mixture per well (48-well plate), yielding a final 500 μl, differentiation medium with [PA]=25 μM and [GF]=75 ng/mL. For controls, the initial 5 mM PA solution was substituted with either PBS alone (saline) or heparin in PBS at appropriate concentrations. Cells were cultured for 3 days without changing the media, and osteoblast differentiation was assessed.
Alkaline Phosphatase Activity: Alkaline phosphatase (ALP) activity was measured as a marker of osteoblast differentiation (ref. 38; incorporated by reference in its entirety). On day 3, media was removed, and cells were lysed with a 100 μL, of M-PER Mammalian Protein Extraction Reagent (Life Technologies), supplemented with 1×Halt Protease Inhibitor Cocktail (Thermo Fisher Scientific), for 30 minutes on an orbital shaker. A 20 μL, volume of the cell lysate was incubated with 200 μL, of the QUANTI-Blue colorimetric ALP assay (InvivoGen) for 30 minutes to 2 hours at 37° C., in duplicates. The ALP activity was assessed by reading the OD at 630 nm with Cytation3 microplate reader (BioTek). Data were normalized to the respective endogenous DNA levels using Quant-iT PicoGreen dsDNA Assay Kit (Life Technologies). Two separate experiments with 4 replicates each were averaged for statistical analysis. […]

The target of data set [3] is T1, BMP-2. Briefly: BMP-2 stability assay (ELISA) in C2C12 culture. The class given is cell-based. The settings on record: 75 ng/mL BMP-2; 0, 3, 9, 24 h. The protocol:
BMP-2 Stability Assay: C2C12 cells were seeded at 150,000 cells/mL (500 μL/well in a 48-well plate) and incubated overnight. Following, the media was replaced with treatment media (75 ng/mL BMP-2 in the presence/absence of PA 1, PA 4, and monosaccharide 1. The media was collected at 0, 3, 9, and 24 h and stored at −80° C. prior to BMP-2 quantification. In addition, the cell monolayers were lysed at the indicated time with a 100 μL of M-PER Mammalian Protein Extraction Reagent, supplemented with 1×Halt Protease Inhibitor Cocktail, and also stored at −80° C. prior to BMP-2 quantification. The amount of BMP-2 present in the media and cell extracts was assayed using a BMP-2 Quantikine ELISA kit (R&D Systems) according to the manufacturer's specifications.
In general terms: In an ELISA, binding on a coated surface is turned into a signal by an enzyme label.

In another data set the target is T2, BMP-4 (Homo sapiens, UniProt P12644).
T2 construct: from E. coli were purchased from PeproTech, in their mature forms; purchased PeproTech; host or cells: E. coli
T2 sequence (P12644 293-408): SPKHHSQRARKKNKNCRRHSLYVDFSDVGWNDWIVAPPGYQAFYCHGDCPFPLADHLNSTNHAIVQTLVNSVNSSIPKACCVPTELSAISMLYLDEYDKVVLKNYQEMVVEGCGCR
The data set is described as follows: SPR binding to BMP-4. The settings on record: azide-derivative, not assembled. Here is the method: as §1, §2

Data set [4] concerns BMP-4 signaling in C2C12 cells. Briefly: C2C12 osteoblast differentiation with BMP-4, ALP activity. It counts as cell-based, mouse. Here is the method:
as §3
C2C12 Osteoblast Differentiation: PA samples were thermally annealed as described for Cryo-TEM. PA solutions were spun down, pipetted for homogeneous mixing, then diluted to 1 mM with DMEM (no FBS). […] Cells were cultured for 3 days without changing the media, and osteoblast differentiation was assessed.
Alkaline Phosphatase Activity: Alkaline phosphatase (ALP) activity was measured as a marker of osteoblast differentiation (ref. 38; incorporated by reference in its entirety). […] The ALP activity was assessed by reading the OD at 630 nm with Cytation3 microplate reader (BioTek). […]

Data set [5] relates to BMP-2, BMP-4, noggin, Shh, VEGF, FGF-1, FGF-2. Briefly: Surface plasmon resonance (SPR) binding to immobilized heparin binding GFs. Details: species or system human (Noggin murine). The following applies: analytes 50-500 nM; GFs immobilized on alginate surface; 25° C. The protocol: as §1
GFs were immobilized on a ProteOn GLC-Chip via amino coupling as described previously, with slight modifications (37). First, the alginate surface was activated with a freshly prepared mixture of 20 mM 1-Ethyl-3-[3-dimethylaminopropyl]carbodiimide hydrochloride (EDC) and 5 mM N-hydroxysulfosuccinimide (Sulfo-NHS) in Milli-Q water (vertical flow cells, 30 μL/min, 3 min). Following, GFs were immobilized on vertical flow cells 1 to 5 by perfusing a freshly prepared 200 nM (or 300 nM) solution over the activated alginate surface (30 μL/min, 5 min). Blank buffer was perfused on vertical cell 6 as a reference. The remaining esters were deactivated with 1 M ethanolamine (30 μL/min, 3 min). The association and dissociation phases were performed at 25° C. in Tween buffer. Prior to each analyte injection, the horizontal flow cells 1 to 6 were regenerated with 10 mM NaOH (100 μL/min, 30 sec) and washed once with Tween buffer (30 μL/min, 3 min). Varied analyte concentrations were injected to horizontal flow cells 1 to 5, with flow cell 6 as a reference (30 μL/min, 5 min), followed by dissociation with Tween buffer (30 μL/min, 10 min). For analysis, SPR sensorgram from the reference flow cell was subtracted from all measurement flow cells. Interaction data were evaluated using the BIAEvaluation 4.1 software. […]

Data set [6] is described as follows: Zeta potential measurements. The class given is physicochemical. Here is the method:
Zeta Potential Measurements: Zeta (ζ) potential was measured using a Malvern Zetasizer Nano ZS (n=3). PA samples were thermally annealed as described for Cryo-TEM. Following, PAs were diluted to 0.5 mM in DMEM. PA solutions were water-bath sonicated for 1 min prior to zeta potential measurement. Background reading from DMEM alone was subtracted from the final measurements.

“Also recorded” adds a separate entry of the source. Residues, ends and D or L forms follow the SMILES beside them. Groups on a side chain read outwards from the residue. *: point of attachment. X1 = CC(=O)NC1C(O)[C@H](O)C(COS(=O)(=O)O)O[C@H]1OCCn1cc(CCC(=O)*)nn1; X2 = O=C(O)C1O[C@@H](OCCn2cc(CCC(=O)*)nn2)C(O)C(O)[C@@H]1O; Acetyl(2-(HOCH2CH2OCH2CH2O)) = O=C(COCCOCCO)*; AEEA = NCCOCCOCC(=O)O; Propionyl = CCC(=O)*

For “2-Azidoethyl 2-acetamido-3,4,6-tri-O-sulfo-2-deoxy-β-D-glycopyranoside [monosaccharide 1]”, the “binding to BMP-2 (SPR)” value at BMP-2 [1] is “bound neither”. The “effect on BMP-2 activity / osteoblast differentiation (in words)” value in data set [2] (3 days) is reported as “not to be the case”. Also, the “BMP-2 stability in cell culture media” value on BMP-2 [3] is given as “not”. For the same compound, the “binding to BMP-4 (SPR)” value at BMP-4 is “bound neither”. The “amplification of BMP-4 signaling” value in data set [4] is “not to be the case”. The “binding to heparin binding GFs (SPR)” value in data set [5] is given as “essentially does not bind”.
`CCC(=O)N[C@H](C(=O)N[C@H](C(=O)N[C@@H](C)C(=O)N[C@@H](C)C(=O)N[C@@H](CCC(=O)O)C(=O)N[C@@H](CCC(=O)O)C(=O)N[C@@H](CCCCNC(=O)COCCOCCNC(=O)CCc1cn(CCO[C@@H]2OC(COS(=O)(=O)O)[C@@H](O)C(O)C2NC(C)=O)nn1)C(N)=O)C(C)C)C(C)C` (stereo partly drawn) [PA 2, 6S-GlcNAc PA] (Propionyl-VVAAEEK([AEEA-X1])-NH2): in data set [2] (nanofibers containing the monosulfated monosaccharide, density not stated, 25 μM PA, BMP-2 75 ng/mL), the “increase in BMP-2 signaling (ALP activity)” value came out at 3 fold. Moreover, in data set [6], the “zeta potential / net charge of nanofibers” value (from here on “zeta potential / net charge”) was “comparable zeta potentials”.
In the case of `CCC(=O)N[C@H](C(=O)N[C@H](C(=O)N[C@@H](C)C(=O)N[C@@H](C)C(=O)N[C@@H](CCC(=O)O)C(=O)N[C@@H](CCC(=O)O)C(=O)N[C@@H](CCCCNC(=O)COCCOCCNC(=O)CCc1cn(CCO[C@@H]2OC(C(=O)O)[C@@H](O)C(O)C2O)nn1)C(N)=O)C(C)C)C(C)C` (stereo partly shown) [PA 3, GlcA PA] (Propionyl-VVAAEEK([AEEA-X2])-NH2), the “effect on BMP-2 activity / osteoblast differentiation (in words)” value in data set [2] (3 days) was “did not potentiate”. Besides, the “ALP activity, PA co-assembled with PA 6” value in data set [2] (incorporated at the level of 10% or higher in PA 6, 25 μM PA, BMP-2 75 ng/mL) was “not to enhanced”. In addition, the “zeta potential / net charge” value in data set [6] is “comparable zeta potentials”.
As to `CCC(=O)N[C@H](C(=O)N[C@H](C(=O)N[C@@H](C)C(=O)N[C@@H](C)C(=O)N[C@@H](CCC(=O)O)C(=O)N[C@@H](CCC(=O)O)C(=O)N[C@@H](CCCCNC(=O)COCCOCCO)C(N)=O)C(C)C)C(C)C` [PA 5, OEG PA] (Propionyl-VVAAEEK(Acetyl(2-(HOCH2CH2OCH2CH2O)))-NH2), the “effect on BMP-2 activity / osteoblast differentiation (in words)” value in data set [2] (3 days) is “negligible effect”. In addition, the “zeta potential / net charge” value in data set [6] was “screened the net negative charge”.
For the compound `CCC(=O)N[C@H](C(=O)N[C@H](C(=O)N[C@@H](C)C(=O)N[C@@H](C)C(=O)N[C@@H](CCC(=O)O)C(=O)N[C@@H](CCC(=O)O)C(N)=O)C(C)C)C(C)C` [PA 6, E2 PA] (Propionyl-VVAAEE-NH2), in data set [2] (PA 6 alone, 0% monosaccharide density, 25 μM PA, BMP-2 75 ng/mL, 3 days), the “increase in ALP activity” value worked out at 5 fold.
Heparan sulfate [reference compound]: in data set [2] (3 days), the “effect on BMP-2 activity / osteoblast differentiation (in words)” value is reported as “dose response increase” and the “level of ALP expression relative to BMP-2 alone (factor)” value came out at 3.
As to heparin [reference compound], in data set [2] (3 days), the “effect on BMP-2 activity / osteoblast differentiation (in words)” value is reported as “dose response increase; also recorded: more potent response than HS” and the “level of ALP expression relative to BMP-2 alone (factor)” value turned out to be 5. Also, in data set [5], the “binding to heparin binding GFs (SPR)” value was “moderate binding”.
